Experimental data from ChEMBL document CHEMBL3507680, “University of Dundee, Gates Library screen for HepG2 cell viability”.

Assay: Human HepG2 cell viability assay in 384 well format
Assay type: toxicity, cell-based
Set-up: dose 125 nL, time 70.5 hour; concentration not given beside the values
Conditions: HepG2 cells, read-out: Inhibition

SMILES	cytotoxicity at 70.5 h [%]
COc1cccc(C(=O)N2CCCCC2CNC(N)=O)c1 (stereo not drawn)	9
CCOc1ccc(CN(C)C(=O)COc2ccc(C)nc2)cc1	-8.96
Cc1cnn(CC2CN(CC(=O)Nc3c(C)nn(C)c3C)CCO2)c1 (stereo not drawn)	-4.95
COCCN1CCC(CNC(=O)c2cc(Cl)c[nH]2)CC1	-11.1
CC(C)Cn1cnc(S(=O)(=O)NCCc2nnc3ccccn23)c1	15.7
Fc1ccccc1CN1C[C@@H]2OCCN(c3ncccn3)[C@@H]2C1	-13.2
O=c1n(CCNCc2ccc3ccccc3c2)nc2ccccn12	-0.105
O=C(NC[C@H]1OC[C@@H](NCc2ccccc2F)[C@@H]1O)Nc1ccccc1	-3.35
O=C(COCc1nc(-c2ccncc2)no1)N1CCOCC1	-0.64
Cc1nnc(SC2CCc3ccccc3NC2=O)n1C (stereo not drawn)	-23
CN(CCc1cccs1)CCc1nccs1	0.685
CCCc1ncc(CNC2(c3ccc(Cl)cc3)CC2)cn1	-4.1
Cc1cccc(CN2CCc3c(COCC(=O)N(C)C)nn(C)c3C2)n1	0.676
CC(C)(C)C(=O)N1CCC2(COCc3cnc(N4CCOCC4)nc32)C1 (stereo not drawn)	-19.1
CS(=O)(=O)N1CCC(OCCCc2ccccc2)C1 (stereo not drawn)	3.28
COc1ncnc(N)c1CNCc1ccccc1-n1cccn1	6.74
c1ccc(Cc2noc(CN3CCCCC3Cn3cccn3)n2)cc1 (stereo not drawn)	-9.87
Cc1csc(N(C)C(=O)C(c2c(F)cccc2Cl)N(C)C)n1 (stereo not drawn)	-0.598
N#Cc1c(CN2CCCC2Cn2cccn2)cn2ccccc12 (stereo not drawn)	18.8
Cc1csc(CNCc2c(C)nn(C)c2N2CCOCC2)n1	-0.213
Cc1cc(F)ccc1N1CCC(N2C[C@@H](CN(C)C)[C@@H](CO)C2)CC1	-6.24
CC(C)c1csc(C2CCCN(C(=O)c3ccc(=O)n(C)c3)C2)n1 (stereo not drawn)	-0.564
COc1ccc(CCc2nnc(NC(=O)C3CC34CCC4)s2)cc1OC (stereo not drawn)	-8.17

SMILES	cytotoxicity at 70.5 h [%]
CC(C)c1nnc2n1CCN(C(=O)c1ccc(CN(C)C)cc1)C2	3.04
Cc1cc(C)n(C2CCCN(C(=O)c3csc(C4CC4)n3)C2)n1 (stereo not drawn)	-11
CC(=O)N1CCN(CCNc2snc(Cl)c2C#N)CC1	-5.16
CCc1ccc2nc(C)cc(C(=O)NC[C@@H]3CCNC[C@H]3O)c2c1	14.5
Cc1nn(-c2ccccc2)nc1C(=O)N1CCCC(n2cccn2)C1 (stereo not drawn)	-1.86
OC1(CNCCSc2ccccn2)CCCNC1 (stereo not drawn)	-6.54
CCN(CC)CCc1nc2c([nH]1)CC(c1ccc(Cl)cc1)CNC2=O (stereo not drawn)	-3.81
NC(=O)N1CC2(CCNCC2)c2cc(Cl)ccc21	-0.465
CCN1CC2(CC1=O)CN(C(=O)NC)CCN(S(C)(=O)=O)C2 (stereo not drawn)	-6.12
C=C(C)CN1CCN(Cc2cnc(-c3ccccc3C)nc2)CC1	23.9
COc1ccc(CNC(=O)NCC2CCOC2)c(C(F)(F)F)c1 (stereo not drawn)	-2.53
CCC1CCCN(S(=O)(=O)c2cnn(C)c2)C1 (stereo not drawn)	-0.41
O=C(NC1CCN(c2cc(-n3ccnc3)ncn2)CC1)c1ccncc1	-10.4
O=C(N1CCCC1)N1CCN(c2ccc(Cl)nn2)C(=O)C1	-7.98
COc1ccccc1CN(C)C(=O)c1cc(CN2CCC(O)CC2)on1	-0.685
NC(=O)C1CN(C(=O)Nc2ccccc2OCC(F)(F)F)CCO1 (stereo not drawn)	-4.53
CC(C)c1cc(NC(=O)c2ccc([S+]([O-])C(C)C)cc2)[nH]n1 (stereo not drawn)	-3.24
CCn1cc(NC(=O)C(C)n2ncc(Cl)c2C)c(C(=O)NC)n1 (stereo not drawn)	-3.34
OCCNc1cc(N2CCN(Cc3ccccc3)C(CCO)C2)ncn1 (stereo not drawn)	-7.07
CC(C)C[C@H](N)c1nnc(SCC(=O)Nc2ccc(Br)cc2)o1	-5.07
O=C(NCCCO)C1(CC2CC(c3ccc(F)cc3)=NO2)CCOCC1 (stereo not drawn)	-5.38
CSCCC(=O)N1CCC(c2nccn2CCN(C)C)CC1	-2.46
OC(COc1ccc2c(c1)OCO2)CN1CC(n2cccn2)C1 (stereo not drawn)	-3.37

SMILES	cytotoxicity at 70.5 h [%]
CCOc1ccc(Cl)cc1CCNC(=O)Cn1ccccc1=O	-3.35
Cc1ccc(CN(CCCn2ccnc2)Cc2cc(F)ccc2F)s1	20.3
COc1ccc(CNc2nc(C3CC3)no2)cc1OC	-1.13
Cc1cc(CN2CC[C@H]3OCC[C@@]3(C(=O)NC(C)C)C2)no1	3.85
CCn1cc(NC(=O)C(C)n2ncc(Cl)c2C)c(C(=O)NCC(C)C)n1 (stereo not drawn)	-3.04
O=C(c1ccoc1)N1CCCC2(CCC(=O)N2Cc2ccncc2)C1 (stereo not drawn)	-1.87
CCCn1nc2c(cc1=O)CN(Cc1nc(C)c3ccccc3n1)CC2	-7.04
CN(C)S(=O)(=O)N1CCN(c2ccnc(N3CCCCC3)n2)CC1	-8.18
Cc1ccc(CNS(=O)(=O)CC2=NC(=O)n3cccc3C2=O)cc1	-10.8
Cc1ccc(N2CC[C@H]3O[C@@H](C(=O)N4CCCCO4)CC[C@H]32)nn1	-4.7
Cc1cc(C(=O)N2C[C@@H]3COC[C@]3(c3nnc(C4CC4)o3)C2)on1	-19
CC(O)CN1CCN(C(=O)CCOc2ccccc2F)CC1 (stereo not drawn)	-17.1
CCc1nnc2n1CCN(Cc1csc(Cc3ccccc3)n1)C2	15.5
CN(C)c1ncc2c(O)nc(C3CCCNC3)cc2n1 (stereo not drawn)	-3.16
CN1CCOC(CNC(=O)C2(c3cccc(Cl)c3)CC2)C1 (stereo not drawn)	-5.99
CN(C)CC1CN(c2cnc3ccccc3n2)CCO1 (stereo not drawn)	11.3
Cc1noc(NCc2cn(C)nc2-c2ccncc2)n1	-11.4
CO[C@H]1CC[C@H]2[C@H]1OCCN2C(=O)CCOc1ccccc1	-2.84
CCn1cnnc1CCNC(=O)C1COc2ccc(OC)cc2C1 (stereo not drawn)	-11.5
COc1ccccc1CNC(=O)C1=NN(c2ccc(C)cc2)C(=O)CN1	-4.66
COc1ccc2c(c1)CC(NCCCn1cc(C)cn1)CC2 (stereo not drawn)	1.45
Fc1cccc(Cc2cncc(C3CCCN3C3CCOCC3)n2)c1 (stereo not drawn)	-5.65
CCc1c(C)nn(CC(=O)NC(C(=O)O)c2c(C)n[nH]c2C)c1C (stereo not drawn)	-7.94

SMILES	cytotoxicity at 70.5 h [%]
Cc1nc(CC(=O)N(CCN2CCOCC2)Cc2ccco2)c(C)s1	-4.1
CN(C)c1nc(CNC(=O)NC2CCc3ccccc32)cs1 (stereo not drawn)	-0.66
O=C(COC[C@@H]1CC[C@H]2[C@H](CCN2Cc2ccco2)O1)N1CCCC1	24.3
CCCn1nnc(NCc2ccc(-c3ccc(Br)cc3)o2)n1	-11.9
OC1(CN2CCCCC2)CCN(c2cccc(C(F)(F)F)n2)C1 (stereo not drawn)	-14.1
CC(C)Oc1ncc(C(=O)N2CCC(CC(N)=O)CC2)cc1Cl	-8.52
CNC(=O)[C@H]1C[C@@H]2CN(S(=O)(=O)c3ccc(F)cc3)C[C@@H]2N1C	5.56
Cc1[nH]nc(CCC(=O)N2C[C@H]3CC[C@@H]2CN(C(=O)N(C)C)C3)c1C	-8.2
COc1cc(CNC(=O)Nc2nnc(C(C)C)s2)ccc1O	-10.5
CC(C)(C)CN(CCC#N)Cn1cc(Cl)cn1	-3.15
CN(CC(=O)NS(=O)(=O)c1cccs1)Cc1ccccc1	7.04
O=C(Nc1ccccc1)C1=NOC2(CCCNC2)C1 (stereo not drawn)	18.4
CCN(C)Cc1cnc(S(=O)(=O)CC)n1CCOC	-3.96
CC(=O)N1CCCN(C(=O)NCCNc2ccccn2)CC1	2.71
CCn1ccnc1CN1CCN(c2nccc(OC)n2)CC1C (stereo not drawn)	18.6
O=C(NCCN1CCc2ccccc2C1)c1scnc1Cl	-1.52
Cc1nnc(C(C)N2CCN(Cc3ccc(C#N)cc3)CC2)o1 (stereo not drawn)	-6.02
COc1cccn(Cc2nnc(-c3cccc(F)c3)o2)c1=O	-3.37
Cc1cc2nc(SCC(=O)N3CCCC3)n(-c3ccccc3)c(=O)c2[nH]1	-21.9
c1cnc(N2CCO[C@H]3CN(Cc4csnn4)C[C@H]32)cn1	-11.1
Cc1ccc(N2CCC(NC(C)c3cccs3)CC2)nc1 (stereo not drawn)	-2.5
CC(=O)N1CC(Cc2nccc3ccn(C)c23)C1	-5.15
Cc1cc(F)ccc1N1CCCC(NC2CCSCC2)C1=O (stereo not drawn)	-2.24

SMILES	cytotoxicity at 70.5 h [%]
CC(C)(C)c1noc(CN2CCCc3cc(OC(F)(F)F)ccc32)n1	-2.73
Cc1nccn1CCCNc1ncccc1C#N	-13.8
CCc1nc(C2CCCN(c3nccc(C)n3)C2)no1 (stereo not drawn)	-12.5
CC(C)c1cccc(CSc2nnc(Cn3cncn3)o2)n1	-7.35
CCc1ccc(NC(=O)Nc2c(O)oc3ccccc3c2=O)cc1	-9.4
COC(=O)c1ccc(N2CCN(C(=O)c3cc(C)on3)C(C)C2)cc1 (stereo not drawn)	-15.3
Cc1ncc(-c2ccncc2)c(C2CCN(C(=O)c3ccco3)CC2)n1	-2.42
Cc1cnc(N2CCC3(CC2)CC(NS(C)(=O)=O)CO3)nc1 (stereo not drawn)	1.23
CN(CCNc1cc(N2CCCC2CO)ncn1)Cc1ccccc1 (stereo not drawn)	-3.62
Cc1ccc(C)c(OCc2cc(C(=O)N(C)CC(O)CO)no2)c1 (stereo not drawn)	-4.59
CCn1ccnc1CN1CCCN(C(=O)c2csc(C)n2)CC1	-5.02
CN(CC(=O)N1CCCC1Cn1cccn1)c1cnccn1 (stereo not drawn)	-19.4
CN(C)C(=O)N1CCC(C(=O)NCCNc2ncccc2C#N)CC1	-4.63
COc1ccc(OC2CCN(C(=O)CCc3nc(Cl)n[nH]3)CC2)cc1	-4.51
CC(=O)N1CCCn2nc(CNS(=O)(=O)N3CCC(C)CC3)cc2C1	-11.6
Cc1ccc(CN2C(=O)CCC2C(=O)Nc2cnn(C)c2)o1 (stereo not drawn)	-4.24
CCNC(=O)CN(CC)S(=O)(=O)c1c(Br)cc2[nH]c(=O)oc2c1Cl	-12.3
CCN(CC1CCCN(CCc2cccc(OC)c2)C1)C(=O)CCSC (stereo not drawn)	-6.12
COc1ccc(N2CCC(C(=O)/N=c3/[nH]ccs3)CC2)nn1	-7.23
COCC(=O)N1CCC2(CCCN(Cc3cc(OC)ccc3F)C2)C1 (stereo not drawn)	-7.78
CCS(=O)(=O)N1CCC2(CC1)CC(COC)N(c1ncccn1)C2 (stereo not drawn)	2.68
